Consider 6 compounds from ChEMBL document CHEMBL1157531, “Sinulaflexiolides A-K, cembrane-type diterpenoids from the chinese soft coral Sinularia flexibilis” (J Nat Prod, 2008).

The nature of this experiment: Cytotoxicity against human […] cells. Format: functional, cell-based.

For `C=C1C(=O)O[C@]2(C)CC[C@@H]1C[C@H]1O[C@@]1(C)CC[C@H](OC(C)=O)[C@@]1(C)CC[C@@H]2O1`, the IC50 – broadly, the concentration needed to halve the response being measured – was more than 10 µg/mL.
For the compound `C=C1C(=O)O[C@@H]2C[C@H]1CC/C(C)=C/CC/C(C)=C/CC[C@]2(C)O`, the IC50 is more than 10 µg/mL.
In the case of `C=C1C(=O)O[C@]2(C)CC[C@@H]1C[C@@H](O)[C@@](C)(O)CC/C=C(\C)CC[C@@H]2O` [CAPILLOLIDE], the IC50 was more than 10 µg/mL.
`C=C1C(=O)O[C@]2(C)CC[C@@H]1C[C@H](O)/C(C)=C/C/C=C(\C)CC[C@@H]2OC(C)=O` [DENDRONPHOLIDE A] returned an IC50 of more than 10 µg/mL.
Compound `C=C(C(=O)OC)[C@@H]1CC[C@@](C)(O)[C@@H]2CC[C@@](C)(O2)[C@@H](OC(C)=O)CC[C@]2(C)O[C@@H]2C1` [SINULAFLEXIOLIDE E] came in with an IC50 of 8.5 µM.
Compound `C=C(C(=O)OCC)[C@@H]1CC[C@@](C)(O)[C@@H]2CC[C@@](C)(O2)[C@@H](OC(C)=O)CC[C@]2(C)O[C@@H]2C1` [SINULAFLEXIOLIDE F] yielded an IC50 of 0.12 µM.
